# According to ChEMBL document CHEMBL5465560, “Selectivity Literature for EUbOPEN Chemogenomic Library” (2024):
# Experiments:
# [1] = molecular target: Tyrosine-protein kinase SYK (Homo sapiens, UniProt P43405); details: at 10 µM
# [2] = molecular target: Serine/threonine-protein kinase pim-1 (Homo sapiens, UniProt P11309); experiment: Selectivity interaction (Upstate Kinase Profiler service (Millipore)) EUB0000056c PIM1; details: at 1 µM
# [3] = molecular target: CDK9/cyclin T1 (Homo sapiens) (UniProt O60563+P50750); experiment: (§1) Selectivity interaction (ProQinase) EUB0000171b CDK9; format: protein-complex assay
# [4] = molecular target: CDK9/Cyclin K (Homo sapiens) (UniProt P50750+O75909); experiment: as §1; format: protein-complex assay
# [5] = molecular target: T1, Ankyrin repeat and protein kinase domain-containing protein 1 (Homo sapiens) (UniProt Q8NFD2); experiment: Selectivity interaction (KinomeScan (DiscoverX)) EUB0001079a ANKK1; details: at 1 µM
# T1 sequence (whole entry): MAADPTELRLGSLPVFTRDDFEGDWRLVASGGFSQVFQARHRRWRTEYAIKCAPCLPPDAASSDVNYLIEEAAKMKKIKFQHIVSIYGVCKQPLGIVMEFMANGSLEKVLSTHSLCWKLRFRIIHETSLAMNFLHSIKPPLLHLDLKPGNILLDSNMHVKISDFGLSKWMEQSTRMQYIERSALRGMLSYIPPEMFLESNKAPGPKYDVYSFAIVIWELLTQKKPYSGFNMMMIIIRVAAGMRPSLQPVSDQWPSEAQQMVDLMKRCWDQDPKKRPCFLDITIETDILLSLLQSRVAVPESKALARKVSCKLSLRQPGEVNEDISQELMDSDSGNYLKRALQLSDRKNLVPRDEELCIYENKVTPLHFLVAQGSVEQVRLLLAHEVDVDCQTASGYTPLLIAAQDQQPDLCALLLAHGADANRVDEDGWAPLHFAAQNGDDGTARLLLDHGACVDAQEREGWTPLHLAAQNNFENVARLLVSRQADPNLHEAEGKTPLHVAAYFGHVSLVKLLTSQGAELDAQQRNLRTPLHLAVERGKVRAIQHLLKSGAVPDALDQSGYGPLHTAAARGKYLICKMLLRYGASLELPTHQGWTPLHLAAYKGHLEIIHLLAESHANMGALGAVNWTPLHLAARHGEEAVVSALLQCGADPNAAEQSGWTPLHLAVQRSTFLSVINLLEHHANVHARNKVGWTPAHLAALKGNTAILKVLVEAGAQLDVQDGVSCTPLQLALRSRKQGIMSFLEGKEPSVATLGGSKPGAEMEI
# [6] = molecular target: Serine/threonine-protein kinase PAK 2 (Homo sapiens) (UniProt Q13177); experiment: Selectivity interaction (Kinase panel (KiNativ target engagement assay in Jurkat cells)) EUB0001635a PAK2; format: cell-based; details: Selectivity number of off-targets 0.0, Selectivity number of targets 233.0, Source Knowledge https://www.sciencedirect.com/science/article/pii/S2451945619300674?via%3Dihub, at 1 µM
# [7] = molecular target: Protein kinase C delta type (Homo sapiens) (UniProt Q05655); experiment: Selectivity interaction (KinomeScan (DiscoverX)) EUB0000666a PRKCD; details: at 10 µM
# [8] = molecular target: Cyclin-dependent kinase 2/cyclin A (Homo sapiens) (UniProt P24941+P20248+P78396); experiment: Selectivity interaction (Kinase panel (Z-LYTE Assay)) EUB0001632a CDK2; format: protein-complex assay; details: at 10 µM
# [9] = molecular target: T2, 5-hydroxytryptamine receptor 2C (Homo sapiens) (UniProt P28335); experiment: Selectivity interaction (Panel of kinases, GPCRs, ion channels and transporters (enzymatic assay)) EUB0000223bCl HTR2C
# T2 sequence (whole entry): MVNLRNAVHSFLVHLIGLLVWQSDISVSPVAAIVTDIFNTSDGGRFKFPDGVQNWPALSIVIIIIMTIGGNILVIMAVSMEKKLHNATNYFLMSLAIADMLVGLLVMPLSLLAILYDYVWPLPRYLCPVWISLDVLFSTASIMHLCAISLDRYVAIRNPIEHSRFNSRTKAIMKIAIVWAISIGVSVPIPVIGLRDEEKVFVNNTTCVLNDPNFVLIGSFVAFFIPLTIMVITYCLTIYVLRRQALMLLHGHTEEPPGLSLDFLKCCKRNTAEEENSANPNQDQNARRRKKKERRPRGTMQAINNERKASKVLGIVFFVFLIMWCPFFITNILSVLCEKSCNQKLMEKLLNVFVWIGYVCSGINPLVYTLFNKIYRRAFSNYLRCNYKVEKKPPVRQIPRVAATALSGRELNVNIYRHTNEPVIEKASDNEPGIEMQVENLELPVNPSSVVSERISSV
# [10] = molecular target: T3, NUAK family SNF1-like kinase 1 (Homo sapiens) (UniProt O60285); experiment: Selectivity interaction (Kinase panel (Carna Biosciences)) EUB0001542aTs NUAK1; details: at 1 µM
# T3 sequence (whole entry): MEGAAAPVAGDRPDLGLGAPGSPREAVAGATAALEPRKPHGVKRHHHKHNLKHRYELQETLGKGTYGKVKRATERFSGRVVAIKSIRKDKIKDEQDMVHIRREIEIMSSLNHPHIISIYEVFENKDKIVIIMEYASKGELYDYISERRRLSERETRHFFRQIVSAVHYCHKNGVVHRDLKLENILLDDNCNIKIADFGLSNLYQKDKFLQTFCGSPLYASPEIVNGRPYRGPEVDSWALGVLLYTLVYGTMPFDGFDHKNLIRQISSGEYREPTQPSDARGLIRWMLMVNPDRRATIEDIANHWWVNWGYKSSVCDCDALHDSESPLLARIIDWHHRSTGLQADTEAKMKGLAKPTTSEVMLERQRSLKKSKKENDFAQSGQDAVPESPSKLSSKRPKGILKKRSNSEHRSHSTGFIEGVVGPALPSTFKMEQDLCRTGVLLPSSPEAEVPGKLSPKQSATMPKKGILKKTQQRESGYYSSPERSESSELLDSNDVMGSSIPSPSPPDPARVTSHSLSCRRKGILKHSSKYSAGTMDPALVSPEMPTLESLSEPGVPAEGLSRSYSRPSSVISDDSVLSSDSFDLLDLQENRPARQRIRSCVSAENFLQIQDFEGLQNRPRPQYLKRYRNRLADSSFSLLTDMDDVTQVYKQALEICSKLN
# [11] = molecular target: High affinity nerve growth factor receptor (Homo sapiens, UniProt P04629); experiment: Selectivity interaction (Ambit KINOMEscan and KiNATiv profiling in Jurkat cells) EUB0000090b NTRK1; format: cell-based; details: at 1 µM
# [12] = molecular target: Tyrosine-protein kinase JAK2 (Homo sapiens, UniProt O60674); experiment: Selectivity interaction (ActivX KiNativ screen (ex vivo kinase selectivity in human PBMCs)) EUB0001619a JAK2; format: cell-based; details: PBMC, at 1 µM
# Chain of Tyrosine-protein kinase JAK2 (O60674 whole entry): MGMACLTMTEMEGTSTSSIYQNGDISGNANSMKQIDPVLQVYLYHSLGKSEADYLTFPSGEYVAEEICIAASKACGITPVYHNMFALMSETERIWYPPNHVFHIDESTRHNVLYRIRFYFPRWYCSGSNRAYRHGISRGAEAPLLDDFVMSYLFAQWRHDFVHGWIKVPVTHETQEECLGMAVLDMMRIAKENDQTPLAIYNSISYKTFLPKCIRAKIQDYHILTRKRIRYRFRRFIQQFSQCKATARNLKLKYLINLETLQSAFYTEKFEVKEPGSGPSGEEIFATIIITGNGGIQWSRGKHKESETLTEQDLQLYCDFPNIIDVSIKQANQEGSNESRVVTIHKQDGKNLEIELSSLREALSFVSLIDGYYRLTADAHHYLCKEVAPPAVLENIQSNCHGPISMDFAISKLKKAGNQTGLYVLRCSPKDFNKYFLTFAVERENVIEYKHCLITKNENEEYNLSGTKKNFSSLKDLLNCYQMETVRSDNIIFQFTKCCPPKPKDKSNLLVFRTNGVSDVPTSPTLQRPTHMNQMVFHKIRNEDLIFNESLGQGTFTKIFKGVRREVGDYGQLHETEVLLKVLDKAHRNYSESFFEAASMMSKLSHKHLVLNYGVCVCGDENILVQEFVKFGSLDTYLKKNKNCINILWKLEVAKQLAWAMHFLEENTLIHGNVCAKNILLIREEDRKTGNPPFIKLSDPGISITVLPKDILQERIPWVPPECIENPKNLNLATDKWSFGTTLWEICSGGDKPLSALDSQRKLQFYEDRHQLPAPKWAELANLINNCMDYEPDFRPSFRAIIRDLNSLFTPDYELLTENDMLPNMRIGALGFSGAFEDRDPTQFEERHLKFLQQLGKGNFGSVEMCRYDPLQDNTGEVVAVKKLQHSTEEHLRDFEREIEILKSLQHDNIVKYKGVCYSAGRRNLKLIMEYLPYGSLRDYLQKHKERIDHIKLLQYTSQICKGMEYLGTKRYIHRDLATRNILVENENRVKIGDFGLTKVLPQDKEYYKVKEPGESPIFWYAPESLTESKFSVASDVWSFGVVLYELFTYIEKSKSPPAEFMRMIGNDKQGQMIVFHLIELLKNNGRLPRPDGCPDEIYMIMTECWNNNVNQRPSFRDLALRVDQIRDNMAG
# Chain of Protein kinase C delta type (Homo sapiens) (Q05655 whole entry, looked up): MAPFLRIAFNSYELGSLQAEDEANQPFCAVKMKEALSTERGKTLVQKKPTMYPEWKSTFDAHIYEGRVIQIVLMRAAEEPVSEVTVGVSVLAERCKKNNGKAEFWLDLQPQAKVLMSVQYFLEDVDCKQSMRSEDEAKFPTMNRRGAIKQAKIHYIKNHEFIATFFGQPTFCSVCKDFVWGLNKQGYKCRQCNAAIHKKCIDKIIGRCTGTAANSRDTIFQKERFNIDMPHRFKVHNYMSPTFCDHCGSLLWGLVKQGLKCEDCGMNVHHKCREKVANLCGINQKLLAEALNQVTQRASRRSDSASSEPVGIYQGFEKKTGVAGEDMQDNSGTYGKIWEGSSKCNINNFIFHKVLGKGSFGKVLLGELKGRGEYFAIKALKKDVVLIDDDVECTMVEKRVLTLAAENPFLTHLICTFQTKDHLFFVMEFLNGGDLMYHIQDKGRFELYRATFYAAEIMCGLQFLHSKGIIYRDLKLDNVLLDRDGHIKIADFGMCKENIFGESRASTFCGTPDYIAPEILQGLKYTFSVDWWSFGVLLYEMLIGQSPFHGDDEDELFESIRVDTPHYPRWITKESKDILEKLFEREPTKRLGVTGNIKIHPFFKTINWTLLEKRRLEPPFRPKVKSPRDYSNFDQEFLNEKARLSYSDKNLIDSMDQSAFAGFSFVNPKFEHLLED
# Chain of Serine/threonine-protein kinase pim-1 (P11309 whole entry, looked up): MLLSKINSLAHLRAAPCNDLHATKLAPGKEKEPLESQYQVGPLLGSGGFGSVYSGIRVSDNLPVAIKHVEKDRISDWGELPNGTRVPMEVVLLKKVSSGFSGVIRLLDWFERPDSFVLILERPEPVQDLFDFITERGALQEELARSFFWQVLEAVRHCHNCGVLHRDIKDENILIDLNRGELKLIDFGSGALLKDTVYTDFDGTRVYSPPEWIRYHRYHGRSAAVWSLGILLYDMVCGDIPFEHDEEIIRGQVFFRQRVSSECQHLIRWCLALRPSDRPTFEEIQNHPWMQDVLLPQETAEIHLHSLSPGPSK
# Chain of Serine/threonine-protein kinase PAK 2 (Homo sapiens) (Q13177 whole entry): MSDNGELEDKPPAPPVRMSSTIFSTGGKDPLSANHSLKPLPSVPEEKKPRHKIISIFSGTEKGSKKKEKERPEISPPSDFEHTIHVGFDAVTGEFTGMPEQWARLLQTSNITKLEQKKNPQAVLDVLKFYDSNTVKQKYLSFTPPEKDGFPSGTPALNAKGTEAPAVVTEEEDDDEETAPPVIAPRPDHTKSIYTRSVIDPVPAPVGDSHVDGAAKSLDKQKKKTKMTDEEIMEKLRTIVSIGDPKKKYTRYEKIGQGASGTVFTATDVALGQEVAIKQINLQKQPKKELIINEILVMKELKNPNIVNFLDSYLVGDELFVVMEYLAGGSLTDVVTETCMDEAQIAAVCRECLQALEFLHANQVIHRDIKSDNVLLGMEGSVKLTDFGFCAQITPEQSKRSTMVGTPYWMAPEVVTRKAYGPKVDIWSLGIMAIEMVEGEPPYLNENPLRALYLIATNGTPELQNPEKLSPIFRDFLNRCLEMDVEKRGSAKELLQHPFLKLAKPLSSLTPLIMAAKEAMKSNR
# Chain of High affinity nerve growth factor receptor (P04629 33-796 limits assumed): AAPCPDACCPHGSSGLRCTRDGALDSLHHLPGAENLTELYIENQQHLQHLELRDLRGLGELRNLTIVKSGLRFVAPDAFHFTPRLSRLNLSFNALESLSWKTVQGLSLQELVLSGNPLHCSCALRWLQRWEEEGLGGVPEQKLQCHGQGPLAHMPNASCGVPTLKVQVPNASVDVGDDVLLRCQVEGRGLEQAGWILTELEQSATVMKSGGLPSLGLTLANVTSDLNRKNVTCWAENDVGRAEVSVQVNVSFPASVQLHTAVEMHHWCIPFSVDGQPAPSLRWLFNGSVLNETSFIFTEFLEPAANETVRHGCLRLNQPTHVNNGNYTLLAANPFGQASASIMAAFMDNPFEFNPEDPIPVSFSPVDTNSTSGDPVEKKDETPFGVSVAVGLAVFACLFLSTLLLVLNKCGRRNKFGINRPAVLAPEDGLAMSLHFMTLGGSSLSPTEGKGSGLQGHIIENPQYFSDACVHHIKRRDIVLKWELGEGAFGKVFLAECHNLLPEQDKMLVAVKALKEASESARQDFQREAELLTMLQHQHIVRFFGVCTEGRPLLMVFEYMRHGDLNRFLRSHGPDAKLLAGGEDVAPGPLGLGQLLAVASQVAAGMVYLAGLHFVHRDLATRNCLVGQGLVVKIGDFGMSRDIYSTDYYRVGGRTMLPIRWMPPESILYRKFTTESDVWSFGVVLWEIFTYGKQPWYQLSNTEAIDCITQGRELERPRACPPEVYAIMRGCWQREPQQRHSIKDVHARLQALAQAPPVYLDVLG
structure (smiles),measurement,setting,value
CCN(CC)CCCCNc1ncc2cc(-c3cc(OC)cc(OC)c3)c(NC(=O)NC(C)(C)C)nc2n1,% of control,[1],100%
Cc1ccc(-c2ccc3c(ccc4sc5c(c43)NC[C@@H](C)NC5=O)n2)cn1,% of inhibition,[2],89%
C=CC(=O)Nc1cccc(C(=O)Nc2ccc(Nc3cc(-c4[nH]c(SC)nc4C)ccn3)cc2)c1,% of control,[3]; at 1 µM,63%
same,% of control,[3]; at 5 µM,38%
same,% of control,[4]; at 1 µM,85%
same,% of control,[4]; at 5 µM,39%
Nc1cnc(N2CCc3cc(S(=O)(=O)Nc4c(F)cc(Cl)cc4F)cc(N4CCCC4=O)c32)nc1 [TP-020n],% of control,[5],100%
C=CC(=O)Nc1ccc(C(=O)Nc2[nH]nc3c2CN(C(=O)N[C@H](CN(C)C)c2ccccc2)C3(C)C)cc1,% of engagement,[6],10.9%
O=C(NOC[C@H](O)CO)c1ccc(F)c(F)c1Nc1ccc(I)cc1F,% of control,[7],100%
Cn1cc(-n2cnc3c(NCc4nc5cc(Cl)c(Cl)cc5[nH]4)nc(N4CCOCC4)nc32)cn1,% of control,[8],3.2%
COc1cc(C(=O)N2CC[C@@H](O)[C@@H](N)C2)cc2nc(-c3cc4ccccc4n3CC3CC3)n(C)c12,pXC50,[9],< 4.4 M
Cn1cc(Nc2nccc(N3CC4CCC(C3)N4C(=O)[C@@H]3CC3(F)F)n2)cn1,% of inhibition,[10],60%
CN(C)C/C=C/C(=O)Nc1ccc(C(=O)N2CCCC(Nc3ncc(Cl)c(-c4c[nH]c5ccccc45)n3)C2)cc1 (centres undefined),% of control,[11],78%
N#Cc1cccc(-c2c[nH]c3ncnc(N4CCOCC4)c23)c1,% of inhibition,[12],17%
